Data set [1] deals with Programmed cell death 1 ligand 1 (Homo sapiens, UniProt Q9NZQ7). Description: Inhibition of PDL1 (unknown origin).
The target of data set [2] is Programmed cell death protein 1/Programmed cell death 1 ligand 1 (Homo sapiens, UniProt Q15116+Q9NZQ7). Description: Inhibition of Tag2-PD-1/Tag1-PDL-1 (unknown origin) interaction incubated for 15 mins by TR-FRET assay. The class given is protein-complex assay.
A short description of data set [3]: Growth inhibition of CHO cells expressing PDL-1/TCRa incubated for 24 hrs by Cell Titer-Glo luminescent cell viability assay. The class given is cell-based, Cricetulus griseus. The following applies: chinese hamster. For orientation: Cellular ATP, detected with luciferase, serves as a proxy for viable cell number.
A short description of data set [4]: Growth inhibition of CHO cells expressing PDL-1/TCRa measured after 24 hrs co-culturing with human Jurkat cells expressing PD-1/NFAT-Luc in presence of compound by Cell Titer-Glo luminescent cell viability assay. The class given is cell-based, Cricetulus griseus. The settings on record: chinese hamster.
A short description of data set [5]: Inhibition of PD-1/PDL-1-mediated immune checkpoint using CHO cells expressing PDL-1/TCRa and human Jurkat cells expressing PD-1/NFAT-Luc assessed as Jurkat T lymphocyte activation measured after 6 hrs by luciferase reporter gene based luminescence assay. (In a reporter assay the amount or activity of a reporter protein is the signal.)
The nature of data set [6]: Inhibition of PD-1/PDL-1-mediated immune checkpoint using CHO cells expressing PDL-1/TCRa and human Jurkat cells expressing PD-1/NFAT-Luc assessed as Jurkat T lymphocyte activation by measuring maximal luminescence value measured after 6 hrs by luciferase reporter gene based luminescence assay.

Sequence of Programmed cell death 1 ligand 1 (Q9NZQ7 whole entry): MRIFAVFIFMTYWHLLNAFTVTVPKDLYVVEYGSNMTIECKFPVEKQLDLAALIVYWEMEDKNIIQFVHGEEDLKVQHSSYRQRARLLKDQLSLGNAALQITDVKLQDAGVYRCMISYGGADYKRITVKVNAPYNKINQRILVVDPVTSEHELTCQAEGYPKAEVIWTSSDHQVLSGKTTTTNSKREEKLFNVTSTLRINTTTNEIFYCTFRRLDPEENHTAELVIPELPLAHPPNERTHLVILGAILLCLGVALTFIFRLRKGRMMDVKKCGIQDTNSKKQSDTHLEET
Sequence of Programmed cell death protein 1/Programmed cell death 1 ligand 1 (Q15116 whole entry): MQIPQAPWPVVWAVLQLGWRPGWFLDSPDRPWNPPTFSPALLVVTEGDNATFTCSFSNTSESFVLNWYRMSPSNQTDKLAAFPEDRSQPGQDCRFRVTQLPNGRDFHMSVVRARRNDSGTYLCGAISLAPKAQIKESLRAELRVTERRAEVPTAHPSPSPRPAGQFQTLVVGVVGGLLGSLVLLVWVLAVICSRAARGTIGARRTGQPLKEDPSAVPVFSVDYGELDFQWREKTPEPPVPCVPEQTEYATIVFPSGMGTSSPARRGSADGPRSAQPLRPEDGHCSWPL
Sequence of Programmed cell death protein 1/Programmed cell death 1 ligand 1 (Q9NZQ7 whole entry): as the sequence (Q9NZQ7 whole entry) above

In data set [1], `Cc1cc(C(=O)Nc2cccc(-c3ccc4c(c3)OCCO4)c2C)ncc1CN1CCCC[C@H]1C(=O)O` returned an IC50 below 10 nM. `OC1CCN(Cc2ccc3snc(Nc4cccc(-c5ccc6c(c5)OCCO6)c4Cl)c3c2)CC1` showed an IC50 in data set [2] of 854 nM. That is a sub-micromolar value. `O=C(O)[C@H](CO)NCc1ccc2c(Nc3cccc(-c4ccc5c(c4)OCCO5)c3F)nsc2c1` came in with an IC50 in data set [2] of 486 nM. This IC50 is about 1.8-fold lower than that of the compound before. As for `O=C(O)[C@@H](CO)NCc1ccc2c(Nc3cccc(-c4ccc5c(c4)OCCO5)c3Cl)nsc2c1`, the IC50 in data set [2] came out at 10.8 nM. This IC50 lies about 45-fold lower than the previous one. In data set [2], `CC1(O)CCN(Cc2ccc3snc(Nc4cccc(-c5ccc6c(c5)OCCO6)c4Cl)c3c2)C1` (racemic) registered a half-maximal inhibitory concentration (IC50) of 177 nM.

Take `O=C(O)[C@@H]1C[C@@H](O)CN1Cc1ccc2c(Nc3cccc(-c4ccc5c(c4)OCCO5)c3Cl)nsc2c1`: the midpoint of inhibition in data set [2], the IC50, lay at 17.7 nM. As to `OC1CCCN(Cc2ccc3snc(Nc4cccc(-c5ccc6c(c5)OCCO6)c4Cl)c3c2)C1` (racemic), the IC50 in data set [2] worked out at 327 nM. This IC50 lies about 18-fold higher than the previous one. Turning to `CC1(O)CCN(Cc2ccc3c(Nc4cccc(-c5ccc6c(c5)OCCO6)c4Cl)nsc3c2)C1` (racemic), the concentration for half-maximal inhibition (IC50) in data set [2] was 98.7 nM.

Consider `C[C@H](NCc1ccc2c(Nc3cccc(-c4ccc5c(c4)OCCO5)c3Cl)nsc2c1)C(=O)O`, for which it took 44.4 nM to reach half-maximal inhibition in data set [2] (IC50). In turn, `O=C(O)[C@H](CO)NCc1ccc2c(Nc3cccc(-c4ccc5c(c4)OCO5)c3Cl)nsc2c1` registered an IC50 in data set [2] of 34.7 nM. In turn, `O[C@@H]1CCN(Cc2ccc3c(Nc4cccc(-c5ccc6c(c5)OCCO6)c4Cl)nsc3c2)C1` displayed an IC50 in data set [2] of 106 nM.

For `CN(CC(=O)O)Cc1ccc2c(Nc3cccc(-c4ccc5c(c4)OCCO5)c3Cl)nsc2c1`, the IC50 in data set [2] is 147 nM.

Turning to `O=C(O)C1CCN1Cc1ccc2c(Nc3cccc(-c4ccc5c(c4)OCCO5)c3Cl)nsc2c1` (racemic), in data set [2], the midpoint of inhibition, the IC50, lay at 131 nM. Take `C[C@@H](O)[C@H](NCc1cc(Cl)c(OCc2cccc(-c3ccccc3)c2Br)cc1OCC1CC1)C(=O)O`: the IC50 in data set [1] came to 10.2 nM. As for `C[C@@H](NCc1ccc2c(Nc3cccc(-c4ccc5c(c4)OCCO5)c3Cl)nsc2c1)C(=O)O`, the IC50 in data set [2] was determined as 43.4 nM. As for `O=C(O)C1CCCN1Cc1ccc2c(Nc3cccc(-c4ccc5c(c4)OCCO5)c3Cl)nsc2c1` (racemic), inhibition in data set [2] was half-maximal at 110 nM (IC50). `O=C(O)[C@H](CO)NCc1ccc2c(Nc3cccc(-c4cccc5c4CCN5CCCN4CCC(O)C4)c3Cl)nsc2c1` (stereo partly drawn) returned an IC50 in data set [2] of 231 nM. In turn, `OCC(CO)NCc1ccc2c(Nc3cccc(-c4ccc5c(c4)OCCO5)c3Cl)nsc2c1` had an IC50 in data set [2] of 58.3 nM. Same read-out and setting: the result for `OC1CCCN(Cc2ccc3c(Nc4cccc(-c5ccc6c(c5)OCCO6)c4Cl)nsc3c2)C1` (racemic) reads 164 nM; that for `O=C(O)C1CCN(Cc2ccc3c(Nc4cccc(-c5ccc6c(c5)OCCO6)c4Cl)nsc3c2)CC1`, 60.1 nM.

Compound `O=C(O)CNCc1ccc2c(Nc3cccc(-c4ccc5c(c4)OCCO5)c3Cl)nsc2c1` yielded an IC50 in data set [2] of 35.6 nM. Against the preceding compound, the IC50 is about 1.7-fold lower. On to `COc1ccc(-c2cccc(Nc3nsc4cc(CN[C@@H](CO)C(=O)O)ccc34)c2Cl)cc1OC`, for which the IC50 in data set [2] is above 1000 nM. In data set [2], `O=C(O)C1CCCN(Cc2ccc3c(Nc4cccc(-c5ccc6c(c5)OCCO6)c4Cl)nsc3c2)C1` (racemic) came in with an IC50 of 517 nM. This lies in the sub-micromolar range.

`O=C(O)[C@H](CO)NCc1ccc2c(Nc3cccc(-c4ccc5c(c4)OCCO5)c3Cl)nsc2c1` showed an IC50 in data set [2] of 8.5 nM. The GI50 at 24 h in data set [3] is above 30000 nM. For the same compound, the GI50 at 24 h in data set [4] was above 30000 nM. In data set [5], the EC50 came out at 5600 nM and the inhibition result is “Dose-Dependent Effect”. Besides, the RLU in data set [6] amounted to 3260. Consider `N#Cc1c(NC(=O)c2nc3c(s2)CNCC3)cccc1-c1ccc2c(c1)OCCO2`, for which the IC50 in data set [1] was below 100 nM. In data set [2], `O=C(O)C[C@H](NCc1ccc2c(Nc3cccc(-c4ccc5c(c4)OCCO5)c3Cl)nsc2c1)C(=O)O` displayed an IC50 of 474 nM.

For the compound `OC1CCN(Cc2ccc3snc(Nc4cccc(-c5ccc6c(c5)OCCO6)c4Cl)c3c2)C1` (racemic), the IC50 in data set [2] was 251 nM. `OC1CCN(Cc2ccc3c(Nc4cccc(-c5ccc6c(c5)OCCO6)c4Cl)nsc3c2)C1` (racemic) returned an IC50 in data set [2] of 58.4 nM. Compared with the last compound, the IC50 is about 4.3-fold lower. The compound `Cc1c(Nc2nsc3cc(CN[C@@H](CO)C(=O)O)ccc23)cccc1-c1ccc2c(c1)OCCO2` came in with an IC50 in data set [2] of 78 nM. Consider `OC1CCN(Cc2ccc3c(Nc4cccc(-c5ccc6c(c5)OCCO6)c4Cl)nsc3c2)CC1`, for which the IC50 in data set [2] turned out to be 158 nM. For the compound `O=C(O)[C@H](CO)NCc1ccc2c(Nc3cccc(-c4ccc5c(c4)OCCO5)c3)nsc2c1`, the IC50 in data set [2] was above 1000 nM.

As to `N#Cc1cncc(COc2cc(OC3CCc4c(-c5ccccc5)cccc43)c(Cl)cc2CN[C@@H](CO)C(=O)O)c1` (stereo partly drawn), in data set [1], the IC50 is below 100 nM.

`COc1c(Nc2nsc3cc(CN[C@@H](CO)C(=O)O)ccc23)cccc1-c1ccc2c(c1)OCCO2` displayed an IC50 in data set [2] above 1000 nM.

For `O=C(O)CCCCOc1cccc(-c2cccc(Nc3nsc4cc(CN[C@@H](CO)C(=O)O)ccc34)c2Cl)c1`, the IC50 in data set [2] is above 1000 nM. `O=C(O)[C@H](CO)NCc1ccc2c(Nc3cccc(-c4cccc(O)c4)c3Cl)nsc2c1` showed an IC50 in data set [2] of 143 nM. With `O=C(O)[C@H](CO)NCc1ccc2c(Nc3cccc(-c4ccc5nccnc5c4)c3Cl)nsc2c1`, in data set [2], the IC50 was above 1000 nM. Compound `Cc1c(COc2cc(OCc3cccc(C#N)c3)c(CN3C[C@H](O)C[C@@H]3C(=O)O)cc2Cl)cccc1-c1ccc2c(c1)OCCO2` showed a GI50 at 24 h in data set [3] above 30000 nM. Besides, in data set [4], the GI50 at 24 h was above 30000 nM. For the same compound, in data set [5], the EC50 stood at 3100 nM and the inhibition entry was “Dose-Dependent Effect”. Besides, the RLU in data set [6] was 2240. As to `O=C(O)C1CCN(Cc2ccc3c(Nc4cccc(-c5ccc6c(c5)OCCO6)c4Cl)nsc3c2)C1` (racemic), the midpoint of inhibition in data set [2], the IC50, lay at 73.3 nM. Compound `COC[C@H](NCc1ccc2c(Nc3cccc(-c4ccc5c(c4)OCCO5)c3Cl)nsc2c1)C(=O)O` came in with an IC50 in data set [2] of 79.1 nM. Consider `CC(C)[C@H](NCc1ccc2c(Nc3cccc(-c4ccc5c(c4)OCCO5)c3Cl)nsc2c1)C(=O)O`, for which the midpoint of inhibition in data set [2], the IC50, lay at 73.7 nM. In data set [2], `O=C(O)C1CN(Cc2ccc3c(Nc4cccc(-c5ccc6c(c5)OCCO6)c4Cl)nsc3c2)C1` yielded an IC50 of 72.6 nM. Same read-out and setting: in the case of `O=C(O)[C@H](CO)NCc1ccc2c(Nc3cccc(-c4ccccc4)c3Cl)nsc2c1` it was 40.3 nM. Still for that read-out and setting: in the case of `O[C@H]1CCN(Cc2ccc3c(Nc4cccc(-c5ccc6c(c5)OCCO6)c4Cl)nsc3c2)C1` it was 109 nM. For the compound `O=C(O)CCCCOc1ccc(-c2cccc(Nc3nsc4cc(CN[C@@H](CO)C(=O)O)ccc34)c2Cl)cc1`, the IC50 in data set [2] is above 1000 nM.

Usually IC50 stands for the point on the concentration scale where inhibition reaches its midpoint. High values mean a need for much substance, low ones inhibition by little substance. What is called GI50 is the concentration that inhibits growth by half. One may read the EC50 as the midpoint of the concentration-response curve.
